Results on four molecules are retold here after DBAASP.

Usually MIC stands for the smallest concentration in the dilution series that meets the test's criterion for growth inhibition. Read a high MIC as weaker potency.

In brackets after ≈: the same amount, converted by molar mass. Several values for one entry are separate records, joined by “and”; a condition that tells them apart may be missing. Equal values may be shown once. Some results are limits rather than exact numbers.

Among the test systems are Vibrio harveyi; Vibrio parahaemolyticus; Streptococcus iniae; Vibrio alginolyticus; Lactococcus garvieae; Aeromonas hydrophila 12; Pseudomonas aeruginosa.
What all share (assay): ≥ marks a high value that may be exact or a test limit, other limits are often not marked, values filed in µg/mL are converted to µM
In experiment [1] the test system is Escherichia coli IFO 12734.
Experiment [2] relates to Streptococcus equinus BCRC 14729.
Experiment [3] has as its system Vibrio alginolyticus BCRC 12829.
The test system of experiment [4] is Klebsiella oxytoca BCRC 13985.
Experiment [5] concerns Escherichia coli ATCC 25922.
Experiment [6] concerns Staphylococcus aureus IFO 12732.
The test system of experiment [7] is Pseudomonas aeruginosa IFO 12582.
Experiment [8] concerns Escherichia coli BCRC 10675.
Experiment [9] has as its system Staphylococcus aureus BCRC 10780.
Experiment [10] has as its system Enterococcus faecium ATCC 700221.
The subject of experiment [11] is Vibrio parahaemolyticus BCRC 10806.
In experiment [12] the test system is Klebsiella pneumoniae ATCC 700603.
Experiment [13] concerns Bacillus subtilis IFO 3134.
Experiment [14] concerns Pseudomonas aeruginosa BCRC 10944.
The subject of experiment [15] is Staphylococcus xylosus BCRC 12930.
Experiment [16] has as its system Yersinia enterocolitica BCRC 13999.
Experiment [17] has as its system Listeria monocytogenes BCRC 14845.
The subject of experiment [18] is Vibrio anguillarum serotype O1.
The test system of experiment [19] is Pseudomonas aeruginosa ATCC 27583.
For experiment [20], the system named is Staphylococcus aureus ATCC 43300.
The subject of experiment [21] is Staphylococcus aureus BCRC 10781.
The test system of experiment [22] is Acinetobacter baumannii ATCC BAA-747.
The subject of experiment [23] is Klebsiella aerogenes BCRC 10370.
Experiment [24] deals with Enterobacter cloacae BCRC 10401.
The test system of experiment [25] is Pseudomonas fluorescens 56-12-10.
In experiment [26] the test system is Aeromonas sobria CR79-1-1.
Experiment [27] deals with Vibrio anguillarum E-3-11.
Experiment [28] deals with Aeromonas intestinalis 58209.
Experiment [29] has as its system Vibrio anguillarum SGL 8542.
Experiment [30] has as its system Yersinia ruckeri SC90-2-4.
For experiment [31], the system named is Pseudomonas fluorescens biotype I W81-11.
Experiment [32] relates to Escherichia coli DH5alpha.
Experiment [33] deals with Flavobacterium columnare G4.
Experiment [34] deals with Staphylococcus aureus ATCC 15752.
Experiment [35] concerns Pseudomonas putida ATCC 17426.
Experiment [36] has as its system Cryptococcus neoformans ATCC 34881.
Experiment [37] concerns Candida albicans ATCC 10231.
Experiment [38] has as its system Saccharomyces cerevisiae ATCC 44774.
Experiment [39] has as its system Salmonella enterica subsp. enterica serovar Enteritidis ATCC 13076.
Experiment [40] has as its system Bacillus subtilis ATCC 62037.
Experiment [41] has as its system Streptococcus mutans ATCC 25175.
The subject of experiment [42] is Escherichia coli ATCC 27325.
Experiment [43] deals with Trichophyton mentagrophytes IFO 5466.
Experiment [44] concerns Trypanosoma brucei brucei GUT Tat3.1.
Experiment [45] concerns Staphylococcus aureus ATCC 6538P.
Experiment [46] relates to Staphylococcus aureus KO-4.

Regarding `CC[C@H](C)[C@H](NC(=O)CN)C(=O)NCC(=O)N[C@@H](CCCCN)C(=O)N[C@@H](Cc1ccccc1)C(=O)N[C@@H](CC(C)C)C(=O)N[C@@H](Cc1cnc[nH]1)C(=O)N[C@@H](CO)C(=O)N[C@@H](C)C(=O)N[C@@H](CCCCN)C(=O)N[C@@H](CCCCN)C(=O)N[C@@H](Cc1c[nH]c2ccccc12)C(=O)NCC(=O)N[C@@H](CCCCN)C(=O)N[C@@H](C)C(=O)N[C@@H](Cc1ccccc1)C(=O)N[C@H](C(=O)NCC(=O)N[C@@H](CCC(=O)O)C(=O)N[C@H](C(=O)N[C@@H](CCSC)C(=O)N[C@@H](CC(N)=O)C(=O)N[C@@H](CO)C(N)=O)[C@@H](C)CC)C(C)C` [GIGKFLHSAKKWGKAFVGEIMNS], the MIC is 4.79 µM (≈ 12 µg/mL) in experiment [1]; not below 51.1 µM in [2]; not below 51.1 µM in experiment [3]; 25.5 µM (≈ 64 µg/mL) in experiment [4]; 8 µM (≈ 20 µg/mL) in experiment [5]; 9.98 µM (≈ 25 µg/mL) in experiment [6]. In addition, the MIC is 9.98 µM (≈ 25 µg/mL) in [7]; 25.5 µM (≈ 64 µg/mL) in experiment [8]; not below 51.1 µM in [9]; 16 µM (≈ 40.1 µg/mL) in [10]; not below 51.1 µM in the experiment on Vibrio harveyi; not below 51.1 µM in [11]. Besides, the MIC was 1.6 µM (≈ 4 µg/mL) in the experiment with Vibrio parahaemolyticus; 64 µM (≈ 160 µg/mL) in [12]; 9.98 µM (≈ 25 µg/mL) in experiment [13]; 25.5 µM (≈ 64 µg/mL) in [14]; not below 51.1 µM in experiment [15]; not below 51.1 µM in [16]. The MIC was not below 51.1 µM in experiment [17]; 3.19 µM (≈ 8 µg/mL) in experiment [18]; not below 32 µM in experiment [19]; more than 128 µM in experiment [20]; not below 51.1 µM in experiment [21]; 8 µM (≈ 20 µg/mL) in experiment [22]. Also, the MIC against Streptococcus iniae was not below 51.1 µM; in [23], not below 51.1 µM; against Vibrio alginolyticus it was not below 51.1 µM; in the experiment on Lactococcus garvieae it was 12.8 µM (≈ 32 µg/mL); in [24], 12.8 µM (≈ 32 µg/mL).
As for `CC[C@H](C)[C@H](N)C(=O)N[C@@H](Cc1ccccc1)C(=O)N[C@@H](Cc1cnc[nH]1)C(=O)N[C@@H](Cc1cnc[nH]1)C(=O)N[C@H](C(=O)N[C@@H](Cc1ccccc1)C(=O)N[C@@H](CCCCN)C(=O)NCC(=O)N[C@H](C(=O)N[C@H](C(=O)N[C@@H](Cc1cnc[nH]1)C(=O)N[C@H](C(=O)NCC(=O)N[C@@H](CCCCN)C(=O)N[C@H](C(=O)N[C@H](C(=O)N[C@@H](Cc1cnc[nH]1)C(=O)N[C@@H](CCCN=C(N)N)C(=O)N[C@@H](CC(C)C)C(=O)N[C@H](C(=O)N[C@H](C(=O)NCC(N)=O)[C@@H](C)O)C(C)C)[C@@H](C)CC)[C@@H](C)O)C(C)C)C(C)C)[C@@H](C)CC)[C@@H](C)CC` [IFHHIFKGIVHVGKTIHRLVTG], the MIC in [25] was 14.1 µM (≈ 35.5 µg/mL); in experiment [26] it was 14.1 µM (≈ 35.5 µg/mL); in experiment [27] it was 28.3 µM (≈ 71 µg/mL); in experiment [28], 14.1 µM (≈ 35.5 µg/mL); in [29], not below 56.6 µM; against Aeromonas hydrophila 12, not below 160 µM. The minimum inhibitory concentration (MIC) in experiment [30] was 28.3 µM (≈ 71 µg/mL); in experiment [31] it was 14.1 µM (≈ 35.5 µg/mL); in [32], 7.07 µM (≈ 17.7 µg/mL); in experiment [33], not below 56.6 µM.
As to `CC(C)[C@H](NC(=O)[C@H](CCCCN)NC(=O)CNC(=O)CNC(=O)[C@H](CCC(N)=O)NC(=O)[C@H](CCCCN)NC(=O)CNC(=O)[C@H](CCCN=C(N)N)NC(=O)CNC(=O)[C@@H](N)CCCCN)C(=O)N[C@@H](CCCN=C(N)N)C(=O)N[C@@H](C)C(=O)N[C@@H](CCCCN)C(=O)N[C@@H](C)C(=O)O` [KGRGKQGGKVRAKA], the MIC in [34] was not below 88.8 µM; in experiment [35], not below 44.4 µM; in experiment [36] it was not below 88.8 µM; in experiment [37] it was more than 88.8 µM; in experiment [38], not below 88.8 µM; in [39], not below 88.8 µM. Besides, the results for the MIC in experiment [40], in [41] and in experiment [42] were not below 44.4 µM, not below 88.8 µM and not below 88.8 µM, respectively.
`CC[C@H](C)[C@H](NC(=O)[C@H](CCCN=C(N)N)NC(=O)[C@H](CC(C)C)NC(=O)[C@H](CCCN=C(N)N)NC(=O)[C@H](CC(C)C)NC(=O)[C@@H](N)CCCN=C(N)N)C(=O)NCC(=O)N[C@@H](CCCN=C(N)N)C(=O)N[C@@H](CCCN=C(N)N)C(N)=O` [RLRLRIGRR]: the minimal inhibitory concentration (MIC) in [43] is not below 41.8 µM; in experiment [44], not below 500 µM; in experiment [45], 0.837 µM and 1.67 µM; in experiment [46], not below 502 µM; against Pseudomonas aeruginosa, 669 µM (≈ 799 µg/mL).
